Laboratory results from patent US6806230B1, “Pyrimidine derivatives and herbicides containing them” (Kumiai Chemical Industry Co., Ltd., priority 1999, dated 2004).

Legend:
Assay type in all cases: in vivo
barnyard grass (Ec) [1] = assay: Test Example 2: herbicidal effects by upland soil treatment; design: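 0-5 growth inhibition grade; 5 = over 90%; 4 = 70-90%; 3 = 50-70%; 2 = 30-50%; 1 = 10-30%; 0 = under 10%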; details: dose 100 g active ingredient per 10 ares, examined on the 21st day after treatment
Summary of the method: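 Pre-emergence test: barnyard grass and green foxtail sown in upland soil, then soil surface sprayed with wettable-powder formulation at 100 g active ingredient per 10 ares (100 l per 10 ares). Grown in greenhouse; herbicidal effect scored on a rating scale 21 days after treatment.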

barnyard grass (Ec) [2] = assay: Test Example 3: herbicidal effects by foliage treatment in upland field; design: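 0-5 growth inhibition grade; 5 = over 90%; 4 = 70-90%; 3 = 50-70%; 2 = 30-50%; 1 = 10-30%; 0 = under 10%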; details: dose 100 g active ingredient per 10 ares, examined on the 14th day after treatment
Description: In a 80 cm^2 plastic pot, upland soil was filled, and seeds of barnyard grass (Ec) and green foxtail (Se) were sown and cultured in a green house for 2 weeks. Then, a wettable powder prepared in accordance with Formulation Example 1 was diluted with water and applied to the entire foliage from above the plants by means of a small size spray at a rate of 100 l per 10 ares so that the dose of the active ingredient would be 100 g per 10 ares. Thereafter, cultivation was carried out in a green house, and on the 14th day after the treatment, the herbicidal effects were examined in accordance with the standards of Table 44.

monochoria (Mo) [3] = assay: Test Example 1: herbicidal effects by flooded paddy field treatment; design: herbicidal effects, Mo (monochoria):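 0-5 growth inhibition grade; 5 = over 90%; 4 = 70-90%; 3 = 50-70%; 2 = 30-50%; 1 = 10-30%; 0 = under 10%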; details: for herbicidal effects, Mo (monochoria): dose 100 g active ingredient per 10 ares, examined on the 21st day after treatment, standards of Table 44;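 as to Herbicidal effect index, Mo: 0-5 growth inhibition grade; 5 = over 90%; 4 = 70-90%; 3 = 50-70%; 2 = 30-50%; 1 = 10-30%; 0 = under 10%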
Summary of the method: (§1)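 Flooded paddy pre-emergence test: sowing into puddled soil under 3 cm water, then dropwise water-surface treatment the following day with diluted wettable powder at 100 g active ingredient per 10 ares. Greenhouse cultivation followed, and weeds were rated against a standard scale at 21 days.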

barnyard grass (Eo) [4] = assay: as above; design: herbicidal effects, Eo (barnyard grass):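 0-5 growth inhibition grade; 5 = over 90%; 4 = 70-90%; 3 = 50-70%; 2 = 30-50%; 1 = 10-30%; 0 = under 10%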; details: for herbicidal effects, Eo (barnyard grass): dose 100 g active ingredient per 10 ares, examined on the 21st day after treatment, standards of Table 44
Summary of the method: as §1

barnyard grass (Eo) [5] = assay: Test Example 4: selectivity for a crop plant by flooded paddy field treatment; design: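 0-5 growth inhibition grade; 5 = over 90%; 4 = 70-90%; 3 = 50-70%; 2 = 30-50%; 1 = 10-30%; 0 = under 10%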; details: barnyard grass, dose 25 gai/10a, 21st day after treatment, index per Table 44
Summary of the method: (§2)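 Steps: fill pot with paddy soil and puddle; sow weed seeds; transplant rice at second-leaf stage; flood to 3 cm. Next day, drip the water-diluted wettable powder onto the water (25 g a.i./10 ares). Grow in greenhouse and rate herbicidal effect on day 21.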

rice (Or) = assay: as above; design: scale not given here; details: rice transplanted at second leaf stage, dose 25 gai/10a, 21st day after treatment, index per Table 44
Summary of the method: as §2

monochoria (Mo) [6] = assay: as above; design: scale not given here; details: monochoria, dose 25 gai/10a, 21st day after treatment, index per Table 44
Summary of the method: as §2

[7] = dose 100 gai/10a, examined on 21st day after treatment, index 0-5 per Table 44
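For Herbicidal effect index, Eo in this document: 0-5 growth inhibition grade; 5 = over 90%; 4 = 70-90%; 3 = 50-70%; 2 = 30-50%; 1 = 10-30%; 0 = under 10%.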

SMILES | Ec (herbicidal effects, index) (barnyard grass (Ec) [1]) | Ec (herbicidal effects, index) (barnyard grass (Ec) [2]) | herbicidal effects, Mo (monochoria) (monochoria (Mo) [3]) | herbicidal effects, Eo (barnyard grass) (barnyard grass (Eo) [4]) | Eo (herbicidal effect index) (barnyard grass (Eo) [5]) | Or (herbicidal effect index on crop) (rice (Or)) | Mo (herbicidal effect index) (monochoria (Mo) [6]) | Herbicidal effect index, Mo (monochoria (Mo) [3]; [7]) | Herbicidal effect index, Eo (barnyard grass (Eo) [4]; [7])
CC(C(=O)N(C)C(c1cncnc1C#N)C(C)C)c1ccc(Cl)cc1 (mixture of isomers) [1-508] | 5 | 4 |  |  |  |  |  |  | 
COCC(c1cncnc1C(C)C)N(C)C(=O)C(C)c1ccc(Cl)cc1 (mixture of isomers) [1-586] | 5 | 5 | 5 | 5 |  |  |  |  | 
CCC(C)C(c1cncnc1C(F)(F)F)N(C)C(=O)Cc1cccs1 (mixture of isomers) [2-11] | 5 | 5 | 5 | 5 |  |  |  |  | 
CCC(C)C(c1cncnc1C(F)(F)F)N(C)C(=O)Cc1ccsc1 (mixture of isomers) [2-12] | 5 | 5 | 5 | 5 |  |  |  |  | 
Cc1ccc(C(C)C(=O)N(C)C(c2cncnc2C(F)(F)F)C(C)C)s1 (mixture of isomers) [2-60] | 5 | 4 | 5 | 5 |  |  |  |  | 
CC(C(=O)N(C)C(c1cncnc1C(F)(F)F)C(C)C)c1ccc(Br)s1 (mixture of isomers) [2-61] | 5 | 4 | 5 | 5 |  |  |  |  | 
CC(C(=O)N(C)C(c1cncnc1C(F)(F)F)C(C)C)c1cccs1 (mixture of isomers) [2-62] | 5 | 4 | 5 | 5 |  |  |  |  | 
CCC(C)C(c1cncnc1C(F)(F)F)N(C)C(=O)Cc1cccc(F)c1 (mixture of isomers) [Compound 1-267] | 5 | 4 | 5 | 5 |  |  |  |  | 
CC(C)CC(c1cncnc1C(F)(F)F)N(C)C(=O)Cc1ccccc1 (racemic) [1-330] | 5 | 4 | 5 | 5 |  |  |  |  | 
CC(C)CC(c1cncnc1C(F)(F)F)N(C)C(=O)Cc1ccc(F)cc1 (racemic) [1-331] | 5 | 4 | 5 | 5 |  |  |  |  | 
COc1ncncc1C(C(C)C)N(C)C(=O)Cc1ccc(F)cc1 (racemic) [1-402] | 5 | 5 | 5 | 5 |  |  |  |  | 
COc1ncncc1C(C(C)C)N(C)C(=O)Cc1ccc(Cl)cc1 (racemic) [1-403] | 5 | 4 | 5 | 5 |  |  |  |  | 
CON(C(=O)Cc1ccc(Cl)cc1)C(c1cncnc1C(F)(F)F)C(C)C (racemic) [1-407] | 5 | 4 | 5 | 5 |  |  |  |  | 
C#CCN(C(=O)Cc1ccc(F)cc1)C(c1cncnc1CCC)C(C)C (racemic) [1-617] | 5 | 4 |  |  |  |  |  |  | 
C#CCN(C(=O)Cc1ccc(C)cc1)C(c1cncnc1CCC)C(C)C (racemic) [1-619] | 5 | 4 |  |  |  |  |  |  | 
C#CCN(C(=O)Cc1ccc(F)cc1)C(c1cncnc1C(C)C)C(C)C (racemic) [1-622] | 4 | 4 |  |  |  |  |  |  | 
CCc1ncncc1C(C(C)C)N(C)C(=O)Oc1ccc(Cl)cc1 (racemic) [1-642] | 4 | 4 |  |  |  |  |  |  | 

SMILES | Ec (herbicidal effects, index) (barnyard grass (Ec) [1]) | Ec (herbicidal effects, index) (barnyard grass (Ec) [2]) | herbicidal effects, Mo (monochoria) (monochoria (Mo) [3]) | herbicidal effects, Eo (barnyard grass) (barnyard grass (Eo) [4]) | Eo (herbicidal effect index) (barnyard grass (Eo) [5]) | Or (herbicidal effect index on crop) (rice (Or)) | Mo (herbicidal effect index) (monochoria (Mo) [6]) | Herbicidal effect index, Mo (monochoria (Mo) [3]; [7]) | Herbicidal effect index, Eo (barnyard grass (Eo) [4]; [7])
CCOc1ncncc1C(C(C)C)N(C)C(=O)Cc1ccc(Cl)cc1 (racemic) [1-661] |  | 5 |  |  |  |  |  |  | 
CCN(C(=O)Cc1ccsc1)C(c1cncnc1C(F)F)C(C)C (racemic) [2-8] | 5 |  | 5 | 5 | 5 | 0 | 5 |  | 
CN(C(=O)Cc1cccs1)C(c1ccccc1)c1cncnc1C(F)(F)F (racemic) [2-19] | 5 |  | 5 | 5 | 5 | 1 | 5 |  | 
CN(C(=O)Cc1ccsc1)C(c1ccccc1)c1cncnc1C(F)(F)F (racemic) [2-20] | 5 |  | 5 | 5 | 5 | 1 | 5 |  | 
CN(C(=O)Cc1ccc(Cl)s1)C(c1ccccc1)c1cncnc1C(F)(F)F (racemic) [2-31] | 5 |  | 5 | 5 | 5 | 0 | 5 |  | 
Cc1ccc(CC(=O)N(C)C(c2ccccc2)c2cncnc2C(F)(F)F)s1 (racemic) [2-32] | 5 |  | 5 | 5 | 5 | 1 | 5 |  | 
CN(C(=O)Cc1cccs1)C(c1cncnc1C(F)(F)F)C1(C)CC1 (racemic) [2-55] | 5 |  | 5 | 5 | 5 | 1 | 5 |  | 
CN(C(=O)Cc1ccsc1)C(c1cncnc1C(F)(F)F)C1(C)CC1 (racemic) [2-56] | 5 |  | 5 | 5 | 5 | 1 | 5 |  | 
CN(C(=O)Cc1ccc(Cl)s1)C(c1cncnc1C(F)(F)F)C1(C)CC1 (racemic) [2-58] | 5 |  | 5 | 5 | 5 | 1 | 5 |  | 
C#CCN(C(=O)Cc1ccc(Cl)s1)C(c1cncnc1CC)C(C)C (racemic) [2-73] | 5 |  | 5 | 5 | 5 | 1 | 5 |  | 
C#CCN(C(=O)Cc1ccsc1)C(c1cncnc1C(F)(F)F)C(C)C (racemic) [2-78] | 5 |  | 5 | 5 | 5 | 1 | 5 |  | 
C#CCN(C(=O)Cc1ccsc1)C(c1cncnc1C(C)C)C(C)C (racemic) [2-79] | 5 | 4 |  |  |  |  |  |  | 
CC(C)C(c1cncnc1C(F)(F)F)N(C)S(=O)(=O)c1ccc(Cl)cc1 (racemic) [4-1] | 5 |  | 5 | 5 | 5 | 1 | 5 |  | 
O=C(Cc1ccccc1)NC(c1cncnc1C(F)(F)Cl)C1CC1 (racemic) [Compound 1-1] |  | 4 |  |  |  |  |  |  | 
CCCC(c1cncnc1C(F)(F)F)N(C)C(=O)Cc1ccccc1 (racemic) [Compound 1-111] |  | 4 |  |  |  |  |  | 4 | 5
CC(C)c1ncncc1C(C(C)C)N(C)C(=O)Cc1ccc(F)cc1 (racemic) [Compound 1-129] |  | 5 | 5 | 5 |  |  |  |  | 
CN(C(=O)Cc1ccc(Cl)cc1F)C(c1ccccc1)c1cncnc1C(F)(F)F (racemic) [Compound 1-250] | 4 |  | 5 | 5 | 5 | 1 | 5 |  | 
